Test systems include CCRF-CEM; DLD-1; DMS-114; DMS-273; HOP-18; HOP-92; M19-MEL; MCF7; NCI-H522; NCI/ADR-RES; RXF 393; SNB-75; SNB-78; 786-0; ACHN; M14; SR; TK-10; DU-145; MDA-MB-435.
Common to all, as to test: growth of human tumour cells (NCI), 48 h

The text below walks through data of ChEMBL document CHEMBL1201862, “PubChem BioAssay data set” (2004).

Each structure is given as a SMILES string.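 Exposure lasted 48 hours, with cells grown in 96-well plates and compounds tested at five concentrations. Here, GI50 denotes the concentration required for 50% inhibition of growth.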 The source made the active and inactive calls. Rule as the data show it: active = GI50 up to about 1.1 µM and inactive = higher.

On to `Nc1ncc2c(n1)-c1ccccc1OC2`, for which the GI50 is > 100 µM (inactive) with CCRF-CEM; > 100 µM (inactive) in the assay on DLD-1; > 100 µM (inactive) in the assay on DMS-114; > 80.5 µM (inactive) with DMS-273; > 100 µM (inactive) in the assay on HOP-18; 98.4 µM (inactive) in the assay on HOP-92. The GI50 was > 100 µM (inactive) with M19-MEL; > 100 µM (inactive) in the assay with MCF7; > 100 µM (inactive) in the assay on NCI-H522; > 100 µM (inactive) with NCI/ADR-RES; > 69.2 µM (inactive) in the assay with RXF 393; 22.6 µM (inactive) with SNB-75. In addition, the GI50 with SNB-78 is > 100 µM (inactive).

As to `Cc1c2c(cc3c1[nH]c1ccccc13)C(c1ccc(F)cc1)=NCC2`, the GI50 was 1.14 µM (inactive) in the assay on CCRF-CEM; 0.851 µM (active) in the assay on DLD-1; 0.746 µM (active) in the assay with DMS-114; 0.63 µM (active) with DMS-273; 2.88 µM (inactive) in the assay on HOP-18; 1.44 µM (inactive) in the assay with HOP-92. Moreover, the GI50 with M19-MEL is 1.21 µM (inactive); with MCF7, 1.09 µM (active); with NCI-H522 it was 1.08 µM (active); with NCI/ADR-RES it was 0.774 µM (active); in the assay with RXF 393, 1.42 µM (inactive); with SNB-75, 1.24 µM (inactive). Moreover, in the assay with SNB-78, the GI50 is 1.81 µM (inactive).

With `CC1=CC2c3cccc4[nH]cc(c34)CC2N(C)C1` (centres undefined), the GI50 is > 91.6 µM (inactive) in the assay on CCRF-CEM; > 37.8 µM (inactive) with DLD-1; 51.2 µM (inactive) with DMS-114; > 100 µM (inactive) in the assay on DMS-273; 23.4 µM (inactive) in the assay on HOP-18; 24.4 µM (inactive) in the assay with HOP-92. The GI50 was > 100 µM (inactive) with M19-MEL; 95.1 µM (inactive) in the assay with MCF7; > 100 µM (inactive) in the assay on NCI-H522; > 100 µM (inactive) in the assay on NCI/ADR-RES; > 100 µM (inactive) in the assay with RXF 393; 38.5 µM (inactive) in the assay with SNB-75. Besides, the GI50 in the assay with SNB-78 is > 100 µM (inactive).

For `CN(C)CCNC(=O)c1cccc2c1C(=O)c1ccccc1C2=O`, the GI50 was 23.8 µM (inactive) in the assay on CCRF-CEM; 25.5 µM (inactive) with DLD-1; 15.7 µM (inactive) in the assay on DMS-114; 23.7 µM (inactive) in the assay on DMS-273; > 100 µM (inactive) in the assay with HOP-18; 23.8 µM (inactive) in the assay with HOP-92. Moreover, the GI50 in the assay with M19-MEL is 20 µM (inactive); in the assay on MCF7, 16.2 µM (inactive); with NCI-H522 it was 25.1 µM (inactive); in the assay with NCI/ADR-RES, 27.4 µM (inactive); with RXF 393 it was 55 µM (inactive); with SNB-75, > 100 µM (inactive). The GI50 in the assay with SNB-78 is 24.9 µM (inactive).

As to `O=C(O)CCSC(=S)Nc1cccc(F)c1`, the GI50 in the assay on 786-0 is > 100 µM (inactive); in the assay on ACHN it was 23.8 µM (inactive); in the assay on DLD-1, 50.7 µM (inactive); in the assay on DMS-114, 19.6 µM (inactive); with DMS-273 it was 46.9 µM (inactive); in the assay with HOP-18, > 100 µM (inactive). Moreover, the GI50 was 25 µM (inactive) in the assay on HOP-92; 37.1 µM (inactive) with M14; 28.2 µM (inactive) in the assay with M19-MEL; 30.5 µM (inactive) with RXF 393; 82 µM (inactive) in the assay on SNB-75; 97.1 µM (inactive) in the assay with SNB-78. Further, the GI50 in the assay on SR was 39.2 µM (inactive); in the assay with TK-10, 43.4 µM (inactive).

Consider `O=C(O)C1CCCCN1C(=O)c1ccccc1` (centres undefined), for which the GI50 with 786-0, with ACHN, in the assay with CCRF-CEM, in the assay with DLD-1, in the assay on DMS-114 and in the assay on DMS-273 was > 100 µM (inactive) each time. Further, the GI50 in the assay on HOP-18, in the assay on HOP-92, in the assay on M14, with M19-MEL, with RXF 393 and in the assay with SNB-75 was > 100 µM (inactive) in each case. For the same compound, the GI50 in the assay on SNB-78, in the assay with SR and in the assay with TK-10 was > 100 µM (inactive) each time.

For `CC1=NN(C(=O)c2cc(Cl)cc([N+](=O)[O-])c2)C(=O)C1/N=N/c1ccccc1C(=O)O` (centres undefined), the GI50 in the assay on 786-0, in the assay with ACHN, in the assay with CCRF-CEM, with DLD-1, with DMS-273 and in the assay with HOP-18 was > 100 µM (inactive) in each case. The GI50 in the assay on M19-MEL was > 100 µM (inactive); in the assay on NCI-H522, 36.6 µM (inactive); in the assay on RXF 393 it was > 100 µM (inactive); with SNB-75, 75.2 µM (inactive); in the assay on SNB-78, > 100 µM (inactive); in the assay with SR, > 100 µM (inactive). Besides, in the assay with TK-10, the GI50 was > 100 µM (inactive).

On to `CC(/C=N/N=C(N)N)=N\N=C(N)N`, for which the GI50 in the assay with ACHN was 22.8 µM (inactive); in the assay on CCRF-CEM, 4.73 µM (inactive); with DLD-1 it was 48.9 µM (inactive); with DMS-114 it was 16.8 µM (inactive); in the assay with DMS-273, 31.6 µM (inactive); in the assay on DU-145 it was 46.6 µM (inactive). Also, the GI50 was 246 µM (inactive) with HOP-18; 3.43 µM (inactive) in the assay with HOP-92; 43.6 µM (inactive) in the assay on M14; 27.4 µM (inactive) in the assay with MCF7; 12.9 µM (inactive) with MDA-MB-435; 29.7 µM (inactive) with NCI-H522. For the same compound, the GI50 was 4.15 µM (inactive) in the assay on NCI/ADR-RES; 32.3 µM (inactive) in the assay on RXF 393; 25.2 µM (inactive) with SNB-75; 13.6 µM (inactive) in the assay with SNB-78; > 57.3 µM (inactive) with SR; 44.7 µM (inactive) in the assay on TK-10.

Take `CCOC(=O)CCc1c(C)c2c(OC(C)=O)cc(OC(C)=O)cc2oc1=O`: the GI50 in the assay with 786-0 was 78.7 µM (inactive); in the assay with ACHN it was 28.1 µM (inactive); in the assay with DLD-1, 46 µM (inactive); in the assay with DMS-114, 23.4 µM (inactive); with DMS-273, 35 µM (inactive); with HOP-18, > 100 µM (inactive). Also, the GI50 is 6.9 µM (inactive) in the assay with HOP-92; 43 µM (inactive) in the assay on M14; 61.9 µM (inactive) in the assay on M19-MEL; 50.4 µM (inactive) in the assay on NCI-H522; 21.4 µM (inactive) with RXF 393; 21.7 µM (inactive) in the assay with SNB-75. Besides, the results for the GI50 in the assay with SNB-78 and in the assay with TK-10 were 47.6 µM (inactive) and > 100 µM (inactive), respectively.

For `CCOC(C)OC1CC(n2cc(C)c(=O)[nH]c2=O)OC1CO` (centres undefined), the GI50 is > 100 µM (inactive) in the assay on ACHN; 82.6 µM (inactive) with CCRF-CEM; > 100 µM (inactive) in the assay on DLD-1; > 100 µM (inactive) in the assay on DMS-114; > 100 µM (inactive) with DMS-273; > 100 µM (inactive) in the assay on HOP-18. The GI50 in the assay with HOP-92, in the assay with M14, with M19-MEL, in the assay on NCI-H522, with RXF 393 and with SNB-78 was > 100 µM (inactive) each time. The GI50 with SR and with TK-10 was > 100 µM (inactive) each time.

As to `C/N=C1\S/C(=N\c2ccc(N(C)C)cc2)N1C`, the GI50 with 786-0 was 42.8 µM (inactive); in the assay with CCRF-CEM, 36.1 µM (inactive); with DLD-1 it was 29.8 µM (inactive); in the assay with DMS-114, 17.9 µM (inactive); with DMS-273, 54.1 µM (inactive); in the assay with HOP-18, 35 µM (inactive). Moreover, the GI50 was 21.8 µM (inactive) with HOP-92; 33.1 µM (inactive) in the assay on M14; 38 µM (inactive) with M19-MEL; 25.8 µM (inactive) in the assay on NCI-H522; 19 µM (inactive) in the assay on SNB-75; 22.9 µM (inactive) in the assay with SNB-78. Also, the figures for the GI50 in the assay with SR and in the assay on TK-10 were 46.1 µM (inactive) and 55.7 µM (inactive), respectively.

On to `Cc1ccccc1OCC(COC(=O)Nc1ccccc1)OC(=O)Nc1ccccc1` (centres undefined), for which the GI50 was > 100 µM (inactive) in the assay with ACHN; > 100 µM (inactive) in the assay on CCRF-CEM; 28.8 µM (inactive) in the assay with DLD-1; 42.6 µM (inactive) in the assay on DMS-114; 32.1 µM (inactive) with DMS-273; 34.4 µM (inactive) in the assay with HOP-18. Further, the GI50 in the assay with HOP-92 is 10.9 µM (inactive); in the assay on M14 it was 28.1 µM (inactive); with M19-MEL, 31.1 µM (inactive); in the assay with NCI-H522, 19.6 µM (inactive); in the assay with RXF 393 it was 7.24 µM (inactive); in the assay with SNB-75, 7.1 µM (inactive). For the same compound, the GI50 with SNB-78 was 22.2 µM (inactive); in the assay with SR, 12.1 µM (inactive); in the assay with TK-10, > 100 µM (inactive).
